These results are taken from publication PMC3070406 (The Pediatric infectious disease journal, 2011).

One may read the IC50 as the concentration that gives 50% inhibition.

For assay [1], the system named is NA of influenza A (H1N1) virus isolate. It counts as biochemical. The conditions noted are these: read-out: Susceptibility to oseltamivir (mean IC50 ± SD).
In assay [2] the test system is NA of influenza A (H3N2) virus isolates. It counts as biochemical. The following applies: read-out: Susceptibility to oseltamivir (mean IC50 ± SD).
The subject of a further assay is matrix M2 protein. On the set-up: species or system influenza A (H3N2) virus.

Turning to `CCOC(=O)C1=C[C@@H](OC(CC)CC)[C@H](NC(C)=O)[C@@H](N)C1` [oseltamivir], the concentration for half-maximal inhibition (IC50) turned out to be […] in assay [1] and […] in assay [2].
In the case of `NC12CC3CC(CC(C3)C1)C2` [amantadine], the “Susceptibility to adamantanes (S31N mutation in M2 protein)” value with matrix M2 protein is listed as “resistance”.
